Measurements published in patent US20060024414A1, “Methods for preserving food products” (Kraft Foods Holdings, Inc., priority 2004, published 2006).

Legend:
Listeria monocytogenes [1] = settings: cells sensitized with the antioxidant at the time of pressure treatment; Mackey et al. 1995; cited from earlier work
Listeria monocytogenes [2] = settings: model milk system; Payne et al. 1989; cited from earlier work
[3] = tested on: Listeria monocytogenes Scott A; experiment: Inoculated bagged Vienna sausage challenge, warm enrichment/plating for survivors; type: cell-based; settings: nisin 100 IU/g, TBHQ 0 ppm, sausage about 10^6 CFU/g, about 5 min
Procedure: (§1) In another embodiment, a food substrate processed according to methods of this invention has nondetectable levels of Listeria (even if contamination has occurred). […] The mixture is incubated at 37° C. for 48 hours, followed by the enrichment (mixture) being streaked on Oxford agar or […] agar, and observing the streaked plate for the presence/absence of Listeria. […] Tailing effects also may be reduced or eliminated by methods of the present invention. The presence or absence of other microorganisms may be detected using similar techniques modified for the specific microorganism under consideration. The edible hydroquinone was tert-butylhydroquinone (TBHQ) at a level of either 0 or 100 ppm. The tert-butylhydroquinone was a food grade material obtained from Sigma Chemical Co. (St. Louis, Mo.). The lantibiotic was nisin at a level of either 0 or 100 IU/g. The nisin used was either pure nisin or a commercial nisin ([…]®), both from Aplin & Barrett, Ltd. (Trowbridge, England). […] Nisin samples were prepared by dissolving nisin powder in distilled water, adjusting the pH to 2 with HCl, and sterilizing at 121° C. for 10 minutes. Samples were prepared and used on the same day for each experiment. Three strains of Listeria monocytogenes were used in these challenge studies. Listeria monocytogenes Scott A, OSY-8578, and OSY-328, were obtained from the Food Safety Laboratory of the Department of Food Science and Technology at The Ohio State University (Columbus, Ohio). All experiments were carried out with cultures in stationary phase (grown in tryptose broth (TB; Difco Laboratories, Detroit, Mich.) for 18 hours at 37° C.). […] The hydrostatic pressure used was 600 MPa. For comparison purposes, samples were also treated with no hydrostatic pressure (i.e., under atmospheric pressure). A hydrostatic food processor (Quintus QFP-6, ABB Autoclave Systems, Inc., Columbus, Ohio) was used with a pressure transmitting fluid containing a water/propylene glycol (1:1 vol/vol; Houghto-Safe 620-TY, Houghton International, Inc., Valley Forge, Pa.). Samples were held in a refrigerator before processing and placed on ice following treatment. The temperature during each run was monitored using a thermocouple and a datalogger (Campbell Scientific, Inc., Logan, Utah). […] Canned Vienna sausage (Armour®, The Dial Corporation, Scottsdale, Ariz.) was purchased from local grocery stores. […] One milliliter of each additive, alone or in combinations, was added, and the bags were sealed using vacuum […], Kansas City, Mo.). […] Non-pressurized samples were treated in a similar manner except that no pressure was applied. After high pressure processing, bags were opened aseptically. […] The presence or absence of L. monocytogenes survivors in the samples was determined by streaking the incubated mixture onto Oxford agar and/or […] agar. Each test run consisted of 5 tested bags at a given set of variables; the experiment was repeated 4 times. Treatment conditions required for essentially total elimination of L. monocytogenes were determined using essentially the same materials and procedures as used in Example 1 except that the nisin level was 0, 100, or 200 IU/g; the hydroquinone level was 0, 100, 200, or 300 ppm; and each experiment was repeated 3 times.

[4] = tested on: Listeria monocytogenes OSY-8578; experiment: as above; type: cell-based; settings: nisin 100 IU/g, TBHQ 0 ppm, sausage about 10^6 CFU/g, about 5 min
Procedure: as §1

[5] = tested on: Listeria monocytogenes OSY-328; experiment: as above; type: cell-based; settings: nisin 100 IU/g, TBHQ 0 ppm, sausage about 10^6 CFU/g, about 5 min
Procedure: as §1

COc1ccc(O)c(C(C)(C)C)c1 [BHA, butylated hydroxyanisole]
resistance of Listeria monocytogenes to high hydrostatic pressure treatment (sensitizing effect) (Listeria monocytogenes [1]): reduced

CCCOC(=O)c1ccc(O)cc1 [Propyl paraben]
antimicrobial activity against Listeria monocytogenes (Listeria monocytogenes [2]): only consistently active inhibitor

nisin (ITSISLCTPGCKTGALMGCNMKTATCHCSIHVSK; not fully specified; Lantibiotic nisin-A; UniProt P13068 24-57, looked up) [lantibiotic; antimicrobial polypeptide produced by Lactococcus lactis; pure nisin or commercial Nisaplin from Aplin & Barrett]
Percentage of Bags Testing Positive For Listeria in Batch of 5 (±S.D.) ([3]; Run 2: 0 MPa): 100%
Percentage of Bags Testing Positive For Listeria in Batch of 5 (±S.D.) ([3]; Run 6: 600 MPa): 15 (±19) %
Percentage of Bags Testing Positive For Listeria in Batch of 5 (±S.D.) ([4]; Run 2: 0 MPa): 100%
Percentage of Bags Testing Positive For Listeria in Batch of 5 (±S.D.) ([4]; Run 6: 600 MPa): 30 (±38) %
Percentage of Bags Testing Positive For Listeria in Batch of 5 (±S.D.) ([5]; Run 2: 0 MPa): 100%
Percentage of Bags Testing Positive For Listeria in Batch of 5 (±S.D.) ([5]; Run 6: 600 MPa): 10 (±20) %

Cc1cc(C(C)(C)C)c(O)c(C(C)(C)C)c1 [BHT, Butylated hydroxy toluene]
resistance of Listeria monocytogenes to high hydrostatic pressure treatment (sensitizing effect) (Listeria monocytogenes [1]): not effective
